≈ marks a conversion by molar mass, not a printed value.
Experiments:
[1] = target: T1, JAK2 (JH1 domain-catalytic, Y1007F,Y1008F) kinase (Homo sapiens, UniProt O60674, Y1007F/Y1008F); test: JAK2 Binding Assay (JAK2 JH1 Domain Binding Assay); conditions: JAK2 JH1 domain binding, qPCR detection; read-out: JAK2 Kd
T1 construct: made in house; host or cells: transiently transfected HEK293 cells

[2] = tested on: JAK2-mediated pSTAT5 signaling in constitutively active essential thrombocytopenia cells carrying the V617F mutation; test: SET2-pSTAT5 Cellular Assay; assay type: cell-based; conditions: Homo sapiens, SET-2; SET2 cells, pSTAT5, 4 hours, MSD; read-out: IC50
Method: This assay measures inhibition of JAK2-mediated pSTAT5 signaling in constitutively active essential thrombocytopenia cells carrying the V617F mutation. Cells are harvested from a flask into cell culture medium, and the number of cells is counted. The cells are diluted with culture medium and 100 μL of cell suspension (50000/well) is added into each well of a 96-well cell culture plate. A solution of test compound is added to the assay plate. The plates are covered with a lid and placed in a 37° C. 5% CO2 incubator for 4 hours. After 4 hours, the cells are spun, and the cell pellets are re-suspended with 100 μL cold PBS. Then, the cells are spun again at 4° C. and 4000 rpm for 5 min. PBS is aspirated, and 25 μL lysis buffer (with protease and phosphatase inhibitor cocktail) is added to each cell pellet. The cell lysate is shaken at 4° C. for 20 min to fully lyse the cells. The cell lysate is spun at 4° C. and 4000 rpm for 15 min, and then the supernatant is transferred into a new plate and stored at −80° C. Meso-scale discovery (MSD) is used to analyze plates as follows: a standard MSD plate is coated with capture antibody in PBS (40 μL/well) and is incubated at 4° C. overnight with shaking. The MSD plate is washed three times with 150 μL/well of 1×MSD Wash Buffer (Tris-buffered saline with 0.1% Tween® 20 detergent, TBST). The MSD plates are then blocked with 150 μL of blocking buffer (5% BSA in TBST) and shaken for 1 h at room temperature and 600 rpm. The MSD plate is washed three times with 150 μL/well of 1×MSD Wash Buffer (TBST). Sample lysates are then added to MSD plates (25 μL/well) and shaken for 1 h at room temperature and 600 rpm. The MSD plate is washed three times with 150 μL/well of 1×MSD Wash Buffer (TBST). Detection antibody (prepared in Antibody Detection buffer, 1% BSA in 1×TBST) is then added to the MSD plates, and they are shaken for 1 h at room temperature and 600 rpm. The MSD plate is washed three times with 150 μL/well of 1×MSD Wash Buffer (TBST). A secondary detection antibody (prepared in Antibody Detection buffer, 1% BSA in 1×TBST) is then added to the MSD plates, and they are shaken for 1 h at room temperature and 600 rpm. The MSD plate is washed three times with 150 μL/well of 1×MSD Wash Buffer (TBST). MSD reading buffer (1×) is added to the plates (150 μL/well), and they are diluted from 4× with water. The plates are imaged using an MSD imaging instrument according to the manufacturer's instructions.

[3] = Hepatocyte Stability Assay, rat hepatocytes; assay type: in vitro ADME; conditions: cryopreserved hepatocytes, read-out: Rat Heps CLint
Method: 10 mM stock solutions of test compound and positive control are prepared in DMSO. Stock solutions are diluted to 100 μM by combining 198 μL of 50% acetonitrile/50% water and 2 μL of 10 mM stock solution. Verapamil is used as positive control in the assay. Vials of cryopreserved hepatocytes are thawed in a 37° C. water bath with gently shaking. The contents are poured into the 50 mL thawing medium conical tube. Vials are centrifuged at 100 g for 10 minutes at room temperature. Thawing medium is aspirated and hepatocytes are re-suspended with serum-free incubation medium to yield ˜1.5×10^6 cells/mL. Cell viability and density are counted using a Trypan Blue exclusion, and then cells are diluted with serum-free incubation medium to a working cell density of 0.5×10^6 viable cells/mL. A portion of the hepatocytes at 0.5×10^6 viable cells/mL are boiled for 5 min prior to adding to the plate as negative control to eliminate the enzymatic activity so that little or no substrate turnover should be observed. Aliquots of 198 μL hepatocytes are dispensed into each well of a 96-well non-coated plate. The plate is placed in the incubator for approximately 10 minutes. Aliquots of 2 μL of the 100 μM test compound and 2 μL positive control are added into respective wells of a non-coated 96-well plate to start the reaction. The final concentration of test compound is 1 μM. This assay is performed in duplicate. The plate is incubated in the incubator for the designed time points. 25 μL of contents are transferred and mixed with 6 volumes (150 μL) of cold acetonitrile with internal standard (100 nM alprazolam, 200 nM labetalol, 200 nM caffeine and 200 nM diclofenac) to terminate the reaction at time points of 0, 15, 30, 60, 90 and 120 minutes. Samples are centrifuged for 25 minutes at 3,220 g and aliquots of 150 μL of the supernatants are used for LC-MS/MS analysis.

Kinetic Solubility Assay = assay type: physicochemical; conditions: aqueous buffer, kinetic from dmso stock, kinetic solubility in PBS (pH 4.0 and pH 7.4 in method; pH of table values not stated), RT
Method: Stock solutions of test compounds are prepared in DMSO at the concentration of 10 mM, and a stock solution of control compound is prepared in DMSO at the concentration of 30 mM. Diclofenac is used as positive control in the assay. 30 μL stock solution of each compound is placed into their a 96-well rack, followed by adding 970 μL of PBS at pH 4.0 and pH 7.4 into each vial of the cap-less solubility sample plate. This study is performed in duplicate. One stir stick is added to each vial and then vials are sealed using a molded PTDE/SIL 96-Well Plate Cover. The solubility sample plate is transferred to the Thermomixer comfort plate shaker and incubated at RT for 2 hours with shaking at 1100 rpm. After 2 hours incubation, stir sticks are removed using a big magnet and all samples from the solubility sample plate are transferred into the filter plate. All the samples are filtered by vacuum manifold. The filtered samples are diluted with methanol. Samples are analyzed by LC-MS/MS and quantified against a standard of known concentration in DMSO using LC coupled with Mass spectral peak identification and quantitation. The solubility values of the test compounds are calculated as follows, wherein INJ VOL is injection volume, DF is dilution factor, and STD is standard: […]

T1 sequence (O60674 849-1124 Y1007F/Y1008F limits assumed): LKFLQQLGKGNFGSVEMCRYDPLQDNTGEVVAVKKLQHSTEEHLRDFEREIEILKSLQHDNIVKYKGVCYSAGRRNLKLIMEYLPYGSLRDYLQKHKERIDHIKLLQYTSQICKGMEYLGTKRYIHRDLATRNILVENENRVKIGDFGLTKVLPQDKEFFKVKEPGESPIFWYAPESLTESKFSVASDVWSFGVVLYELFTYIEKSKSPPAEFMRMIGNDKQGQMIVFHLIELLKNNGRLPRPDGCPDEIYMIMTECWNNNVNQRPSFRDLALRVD

Structure (SMILES) | Kd [1] | IC50 [2] | CLint scaled at 1 μM [3] | solubility at 2 h (Kinetic Solubility Assay)
COCCOC(=O)Nc1cc(Oc2cnc3nc(Nc4cc5n(n4)CCC54CCC4)n(C)c3c2C#N)ccn1 [Example I-62, 2-methoxyethyl(4-((7-cyano-2-((5′,6′-dihydrospiro[cyclobutane-1,4′-pyrrolo[1,2-b]pyrazol]-2′-yl)amino)-1-methyl-1H-imidazo[4,5-b]pyridin-6-yl)oxy)pyridin-2-yl)carbamate] | < 10 nM | < 125 nM | 17 to 35 mL/min/kg | 0.1 to 9 µM (≈ 0.053 to 4.77 µg/mL)
COCC(=O)Nc1cc(Oc2cnc3nc(Nc4cc(C(F)(F)F)cn(C)c4=O)n(C)c3c2Cl)ccn1 [Example I-75, N-(4-((7-chloro-1-methyl-2-((1-methyl-2-oxo-5-(trifluoromethyl)-1,2-dihydropyridin-3-yl)amino)-1H-imidazo[4,5-b]pyridin-6-yl)oxy)pyridin-2-yl)-2-methoxyacetamide] | < 10 nM | < 125 nM | < 17 mL/min/kg | 0.1 to 9 µM (≈ 0.0538 to 4.84 µg/mL)
COCC(=O)Nc1cc(Oc2cnc3nc(Nc4cc(C(F)(F)F)cn(C)c4=O)n(C)c3c2C#N)ccn1 [Example I-79, N-(4-((7-cyano-1-methyl-2-((1-methyl-2-oxo-5-(trifluoromethyl)-1,2-dihydropyridin-3-yl)amino)-1H-imidazo[4,5-b]pyridin-6-yl)oxy)pyridin-2-yl)-2-methoxyacetamide] | < 10 nM | < 125 nM | 17 to 35 mL/min/kg | 0.1 to 9 µM (≈ 0.0528 to 4.76 µg/mL)
CC(=O)Nc1cc(Oc2cnc3nc(Nc4cc(C(F)(F)F)cn(C)c4=O)n(C)c3c2Cl)c(F)cn1 [Example I-88, N-(4-((7-chloro-1-methyl-2-((1-methyl-2-oxo-5-(trifluoromethyl)-1,2-dihydropyridin-3-yl)amino)-1H-imidazo[4,5-b]pyridin-6-yl)oxy)-5-fluoropyridin-2-yl)acetamide] | < 10 nM | < 125 nM | 17 to 35 mL/min/kg | 0.1 to 9 µM (≈ 0.0526 to 4.73 µg/mL)
CC(=O)Nc1cc(Oc2cnc3nc(Nc4cc5n(n4)CCCC54CC4)n(C)c3c2C#N)ccn1 [Example I-114, N-(4-((7-cyano-2-((6′,7′-dihydro-5′H-spiro[cyclopropane-1,4′-pyrazolo[1,5-a]pyridin]-2′-yl)amino)-1-methyl-1H-imidazo[4,5-b]pyridin-6-yl)oxy)pyridin-2-yl)acetamide] | < 10 nM | 200 to 1000 nM | 35 to 45 mL/min/kg | 9 to 100 µM (≈ 4.23 to 47 µg/mL)
CC(=O)Nc1cc(Oc2cnc3nc(Nc4cc5n(n4)CCOCC5(C)C)n(C)c3c2C#N)ccn1 [Example I-118, N-(4-((7-cyano-2-((4,4-dimethyl-4,5,7,8-tetrahydropyrazolo[1,5-d][1,4]oxazepin-2-yl)amino)-1-methyl-1H-imidazo[4,5-b]pyridin-6-yl)oxy)pyridin-2-yl)acetamide] | < 10 nM | 200 to 1000 nM | < 17 mL/min/kg | 9 to 100 µM (≈ 4.39 to 48.8 µg/mL)
Cn1c(Nc2cc3n(n2)CCC32CCC2)nc2ncc(Oc3ccnc(NC(=O)C4CC4)c3)c(C#N)c21 [Example I-122, N-(4-((7-cyano-2-((5′,6′-dihydrospiro[cyclobutane-1,4′-pyrrolo[1,2-b]pyrazol]-2′-yl)amino)-1-methyl-1H-imidazo[4,5-b]pyridin-6-yl)oxy)pyridin-2-yl)cyclopropanecarboxamide] | < 10 nM | < 125 nM | < 17 mL/min/kg | 0.1 to 9 µM (≈ 0.0496 to 4.46 µg/mL)
CCN1CCN(Cc2ccc(Nc3nc4ccc(Oc5ccnc(NC(C)=O)c5)cc4n3C)cc2C(F)(F)F)CC1 [Example R-1, reference compound] | < 10 nM | 200 to 1000 nM | 35 to 45 mL/min/kg | 100 to 200 µM (≈ 56.8 to 114 µg/mL)

Reference: patent US11970494B2, “6-heteroaryloxy benzimidazoles and azabenzimidazoles as JAK2 inhibitors” (Ajax Therapeutics, Inc., priority 2021, dated 2024)
